From patent US4649143A, “Methods and compositions for treating protozoal infections with a novel antibiotic” (priority 1984, dated 1987)
Converted amounts (≈) assume the structure as drawn.

Tests used:
[1] = tested on: Bacillus subtilis; assay: In vitro antimicrobial spectrum, agar plate dilution MIC; assay type: cell-based; conditions: ATCC6633, ATCC 6633, Mueller-Hinton agar, 18 hours, 35° C.
Experimental: (§1) The in vitro antimicrobial spectrum of LL-D42067β was determined by the agar plate dilution method with Mueller-Hinton agar and an inoculum of each test organism of approximately 10^4 colony forming units delivered by the Steers replicating device. The minimal inhibitory concentration (MIC) in mcg/ml was defined as the lowest concentration of LL-D42067β that inhibited visible growth after 18 hours incubation at 35° C.

[2] = tested on: Micrococcus luteus; assay: as above; assay type: cell-based; conditions: PC 1001, Mueller-Hinton agar, 18 hours, 35° C.
Experimental: as §1

[3] = tested on: Streptococcus faecalis; assay: as above; assay type: cell-based; conditions: Enterococcus faecalis, ATCC29212; ATCC 29212; Mueller-Hinton agar, 18 hours, 35° C.
Experimental: as §1

[4] = tested on: Staphylococcus epidermidis; assay: as above; assay type: cell-based; conditions: CMC 83-56, Mueller-Hinton agar, 18 hours, 35° C.
Experimental: as §1

[5] = tested on: Staphylococcus aureus; assay: as above; assay type: cell-based; conditions: 18 h, 35° C.
Experimental: as §1

[6] = tested on: Streptococcus sanguis; assay: as above; assay type: cell-based; conditions: G9B (a), Mueller-Hinton agar, 18 hours, 35° C.
Experimental: as §1

[7] = tested on: Enterococcus; assay: as above; assay type: cell-based; conditions: 18 h, 35° C.
Experimental: as §1

[8] = tested on: Bacillus cereus; assay: as above; assay type: cell-based; conditions: LL No. 4, Mueller-Hinton agar, 18 hours, 35° C.
Experimental: as §1

[9] = tested on: Eimeria acervulina and Eimeria tenella (mixed inoculum); assay: Anticoccidial evaluation in infected chicks, survival; assay type: in vivo, Eimeria tenella; chicks; conditions: for Percent Survival: chicks, 7 days after inoculation
Experimental: (§2) The poultry diet employed in the test is as follows: The vitamin-amino acid premix in the above feed composition is prepared from the following formulation. The expressions of quantity relate to units per kilogram of the finished feed composition. A mixed inoculum of 5000 sporulated oocysts of Eimeria acervulina and a sufficient number of oocysts of Eimeria tenella to produce 60% to 75% mortality in untreated controls were given to one-day-old chicks, by direct inoculation into the crops of all chicks. The chicks were given free access to feed and water during the entire test period. Two days before inoculation, medicated feed with several levels of drug was presented to the various groups of chicks. Seven days after inoculation, the tests were terminated and the chicks were weighed, necropsied, and their intestinal tracts examined for lesions.

[10] = tested on: Eimeria tenella; assay: Anticoccidial evaluation in infected chicks, intestinal lesions; assay type: in vivo, Eimeria tenella; chicks; conditions: for Percent Chicks with Reduced Lesions E. tenella: 7 days after inoculation
Experimental: as §2

[11] = tested on: Eimeria acervulina; assay: as above; assay type: in vivo, Eimeria acervulina; chicks; conditions: 0.5 ppm to 5.0 ppm in diet
Experimental: as §2

[12] = Solubility in water; assay type: physicochemical; conditions: compound and its acceptable salts
[13] = tested on: yeasts; assay: In vitro antimicrobial spectrum, summary; assay type: cell-based
Experimental: as §1

[14] = tested on: gram-positive bacteria; assay: In vitro antimicrobial spectrum, summary; assay type: cell-based
Experimental: as §1

SMILES: COc1c2c(c(O)c3c(=O)c4c(oc13)[C@@H](O)CC[C@@H]4O)-c1c3c(c4cc(C)[nH]c(=O)c4c1O)OCO[C@H]3C2 (relative stereo) [LL-D42067β]
- MIC [1]: 4 µg/mL (≈ 7.67 µM)
- MIC [2]: ≤ 0.06 µg/mL
- MIC [3]: 1 µg/mL (≈ 1.92 µM)
- MIC [4]: 0.5 µg/mL (≈ 0.959 µM)
- MIC ([5]; LL No. 14, Mueller-Hinton agar): 0.5 µg/mL (≈ 0.959 µM)
- MIC ([5]; LL No. 27, Mueller-Hinton agar): ≤ 0.06 µg/mL
- MIC ([5]; Smith, Mueller-Hinton agar): 0.5 µg/mL (≈ 0.959 µM)
- MIC [6]: 0.5 µg/mL (≈ 0.959 µM)
- MIC ([7]; OSU 75-1, Mueller-Hinton agar): 1 µg/mL (≈ 1.92 µM)
- MIC ([7]; SM 77-15, Mueller-Hinton agar): 2 µg/mL (≈ 3.84 µM)
- MIC [8]: ≤ 0.06 µg/mL
- survival of infected chicks ([9]; 0.5 ppm to 5.0 ppm in diet): improved survival
- Percent Survival ([9]; 0.5 ppm in diet): 40%
- Percent Survival ([9]; 0.75 ppm in diet): 60%
- Percent Survival ([9]; 1.00 ppm in diet): 80%
- Percent Survival ([9]; 2.5 ppm in diet): 100%
- Percent Survival ([9]; 5.0 ppm in diet): 80%
- suppression of lesions due to E. tenella ([10]; 0.5 ppm to 5.0 ppm in diet): significant suppression of lesions
- Percent Chicks with Reduced Lesions E. tenella ([10]; 0.5 ppm in diet): 0%
- Percent Chicks with Reduced Lesions E. tenella ([10]; 0.75 ppm in diet): 40%
- Percent Chicks with Reduced Lesions E. tenella ([10]; 1.00 ppm in diet): 80%
- Percent Chicks with Reduced Lesions E. tenella ([10]; 2.5 ppm in diet): 100%
- Percent Chicks with Reduced Lesions E. tenella ([10]; 5.0 ppm in diet): 100%
- suppression of lesions due to E. acervulina [11]: significant suppression of lesions
- solubility in water [12]: relatively insoluble in water
- activity against yeasts [13]: moderately active
- activity versus gram-positive bacteria [14]: active
